Test results reported in PubChem BioAssay AID328 (DTP/NCI, 2004).
Where “and” joins values, the source holds several entries; their conditions need not be identical. Equal values may be shown once. Toxic doses and inconclusive results are not listed. How the source made its calls: active means survival T/C of 150% or more; inactive means T/C below 125% in these data.

Test system: BDF1 mice, P388 leukemia ip, median survival T/C
Assay: NCI In Vivo Anticancer Drug Screen. Data for tumor model P388 Leukemia (intraperitoneal) in B6D2F1 (BDF1) mice
Details: endpoint: median survival time, higher = longer survival
In short: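 T/C = treated-group survival ÷ vehicle-control survival; tumour transplanted into mice before dosing.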

[1] = dose: 100.0 mg/kg/injection, schedule: Q01DX009 (ip), vehicle: saline

Measured: T/C

CC(O)C1(O)C(O)CC(OC2c3cc4c(c(O)c3[C@@H]3C[C@@]2(C)OC32C=c3cc[nH]c3=N2)C(=O)c2cccc(O)c2C4=O)OC1C (some centres undefined)
inactive: dose: 0.5 mg/kg/injection, schedule: Q01DX009 (ip), vehicle: saline with Tween-80 105 % of control | dose: 0.5 mg/kg/injection, schedule: Q01DX009 (ip), vehicle: saline 103 % of control and 109 % of control | dose: 1.0 mg/kg/injection, schedule: Q01DX009 (ip), vehicle: saline with Tween-80 119 % of control | dose: 1.0 mg/kg/injection, schedule: Q01DX009 (ip), vehicle: saline 118 % of control and 124 % of control | dose: 2.0 mg/kg/injection, schedule: Q01DX009 (ip), vehicle: saline with Tween-80 111 % of control | dose: 2.0 mg/kg/injection, schedule: Q01DX009 (ip), vehicle: saline 111 % of control and 118 % of control | dose: 4.0 mg/kg/injection, schedule: Q01DX009 (ip), vehicle: saline with Tween-80 117 % of control | dose: 8.0 mg/kg/injection, schedule: Q01DX009 (ip), vehicle: saline with Tween-80 122 % of control

COc1cc2cc[n+](C)cc2cc1OC
inactive: dose: 6.25 mg/kg/injection, schedule: Q04DX003 (ip), vehicle: water 94 % of control | dose: 12.5 mg/kg/injection, schedule: Q04DX003 (ip), vehicle: water 94 % of control | dose: 25.0 mg/kg/injection, schedule: Q04DX003 (ip), vehicle: saline 100 % of control | dose: 25.0 mg/kg/injection, schedule: Q04DX003 (ip), vehicle: water 107 % of control | dose: 50.0 mg/kg/injection, schedule: Q01DX009 (ip), vehicle: saline 100 % of control | dose: 50.0 mg/kg/injection, schedule: Q04DX003 (ip), vehicle: saline 86 % of control and 104 % of control | dose: 50.0 mg/kg/injection, schedule: Q04DX003 (ip), vehicle: water 111 % of control | [1] 100 % of control | dose: 100.0 mg/kg/injection, schedule: Q04DX003 (ip), vehicle: saline 88 % of control and 90 % of control and 113 % of control | dose: 100.0 mg/kg/injection, schedule: Q04DX003 (ip), vehicle: water 111 % of control

N#Cc1c(N)sc2c1CCCC2
inactive: [1] 109 % of control | dose: 200.0 mg/kg/injection, schedule: Q01DX009 (ip), vehicle: saline 109 % of control | dose: 400.0 mg/kg/injection, schedule: Q01DX009 (ip), vehicle: saline 104 % of control

C(=NC(c1ccccc1)(c1ccccc1)c1ccccc1)=NC(c1ccccc1)(c1ccccc1)c1ccccc1
inactive: dose: 12.5 mg/kg/injection, schedule: Q01DX009 (ip), vehicle: gum acacia 87 % of control | dose: 25.0 mg/kg/injection, schedule: Q01DX009 (ip), vehicle: gum acacia 100 % of control | dose: 50.0 mg/kg/injection, schedule: Q01DX009 (ip), vehicle: gum acacia 95 % of control | dose: 100.0 mg/kg/injection, schedule: Q01DX009 (ip), vehicle: gum acacia 88 % of control | dose: 100.0 mg/kg/injection, schedule: Q04DX003 (ip), vehicle: gum acacia 100 % of control | dose: 200.0 mg/kg/injection, schedule: Q01DX009 (ip), vehicle: gum acacia 88 % of control | dose: 200.0 mg/kg/injection, schedule: Q04DX003 (ip), vehicle: gum acacia 91 % of control

[Cl][Hg][CH2]CC1CC=CCC1 (centres undefined)
inactive: dose: 6.25 mg/kg/injection, schedule: Q01DX009 (ip), vehicle: saline with Tween-80 113 % of control | dose: 6.25 mg/kg/injection, schedule: Q04DX003 (ip), vehicle: saline sonified 104 % of control | dose: 12.5 mg/kg/injection, schedule: Q01DX009 (ip), vehicle: saline with Tween-80 117 % of control | dose: 12.5 mg/kg/injection, schedule: Q04DX003 (ip), vehicle: saline sonified 122 % of control | dose: 25.0 mg/kg/injection, schedule: Q04DX003 (ip), vehicle: saline sonified 118 % of control

COC(=O)CCCc1c[nH]c2ccccc12
inactive: dose: 100.0 mg/kg/injection, schedule: Q01DX009 (ip), vehicle: other 103 % of control | dose: 200.0 mg/kg/injection, schedule: Q01DX009 (ip), vehicle: other 94 % of control | dose: 400.0 mg/kg/injection, schedule: Q01DX009 (ip), vehicle: other 86 % of control

CC1=Nc2ccccc2N(C)/C1=C/C1=C(Cl)C(=O)c2ccccc2C1=O
inactive: dose: 25.0 mg/kg/injection, schedule: Q01DX001 (ip), vehicle: saline with Tween-80 103 % of control | dose: 50.0 mg/kg/injection, schedule: Q01DX001 (ip), vehicle: saline with Tween-80 94 % of control | dose: 100.0 mg/kg/injection, schedule: Q01DX001 (ip), vehicle: saline with Tween-80 108 % of control
